Columns and labels:
[1] = Apparent pKa of ionizable lipid in LNP by TNS fluorescence; conditions: pH 3, probe TNS (2-(p-toluidino)-6-naphthalene sulfonic acid)
Protocol: (§1) Using 1 M sodium hydroxide and 1 M hydrochloric acid, ˜20 unique buffers from the master buffer stock are prepared at different pH values between about 3 and 12. 300 mM 6-(p-Toluidino)-2-naphthalenesulfonic acid sodium salt (TNS reagent) solubilized in dimethyl sulfoxide (DMSO) is used as a stock. LNP are prepared and purified into the desired pH buffer with a final mRNA concentration of 0.04 mg/mL. Using a 96-well plate, preloaded with desired buffers, mRNA containing LNP are added to so that the final concentration of mRNA is 0.7 μg/mL. To each well, TNS is added so that the DMSO concentration is 1% (v/v). After mixing, the fluorescence of TNS in each well is measured (Ex/Em 331 nm/445 nm) and a sigmoidal best fit analysis is applied to the fluorescence data. The pKa is determined as the pH giving rise to half-maximal fluorescence intensity.

[2] = Accelerated oxidation of ICLs with H2O2/Fe(III)Cl, UHPLC-CAD; format: physicochemical; conditions: for % of parent lipid peak at time 0, 24 h / % of parent lipid peak at time 0, 48 h / % of parent lipid peak at time 0, 72 h: Table 14, ICL lipid suspensions, 1% H2O2/100 μM Fe(III)Cl, 37° C.; for degradation: after 48 hours of incubation with hydrogen peroxide
Protocol: Individual lipid stocks (10 mM) were prepared in ethanol and stored at −20° C. […] Liposomal formulations based on AKG-UO-1 and O-11769 ionizable cationic lipids (Table 12) were prepared by combining lipid mixtures of desired composition in 1 mL ethanol with 3 mL 6.25 mM sodium acetate, pH 5.0 at 6 mL/min on a NanoAssemblr (Precision Nanosystems). 3.6 mL of the mixture was retained, while the initial 0.35 mL of the mixture and final 0.05 mL were discarded. Ethanol was removed by buffer exchange into PBS, pH 7.4 by concentrating each liposome preparation using an Aminon-Ultra 4 centrifugal concentrator at 500 g for 10 min at 4° C. and diluting back to the original volume with PBS. This cycle was repeated multiple times until the ethanol concentration was <1%. Finally, liposomes were sterile filtered through 0.2 μm PES (Nalgene) syringe filters and size measured by a ZetaSizer (Malvern).
Aliquots of the liposomal formulations were stored at −80° C. and thawed before the experiment. A combined stock in water of 10% H2O2 (Sigma-Aldrich, cat #H1009) and 1 mM of Fe(III)Cl (Sigma-Aldrich, cat #372870) was freshly prepared prior to the treatment. To make 1% final concentration of H2O2 and 100 μM Fe(III)Cl, 10 μl of 10% H2O2/1 mM Fe(III)Cl stock was added to 90 μl of both liposomal formulations and individual lipids The liposomes and individual lipids were incubated with H2O2/Fe(III)Cl at 37° C. and then 5 μl from each sample was taken at different time points (0, 3, 24, 48 and 72 hours) and dissolved in 90 μl of MeOH for HPLC analysis. Degradation of the main lipid peak was analyzed using Thermo Scientific Vanquish Flex UHPLC occupied with Charged Aerosol Detector (CAD) and Thermo Scientific Accucore™ C18+ UHPLC column (L=50 mm, D=2.1 mm, Particle Size=1.5 μm).
The data are presented as a percentage of the main lipid peak measured at different time points relative to the lipid peak measured at time zero.

physchem = conditions: pH 3
Protocol: as §1

Structure (SMILES) | pKa [1] | further results
CCC/C=C\CCCC/C=C\CCCCC(=O)OC[C@H](CCN(C)C)OC(=O)CCCC/C=C\CCCC/C=C\CCC [Compound 23] | 6 to 7 | 
CCCCCCCC/C=C\CCSSCCCCC(CCCCSSCC/C=C\CCCCCCCC)OC(=O)CCCN(C)C [Compound 31] | 6 to 7 | 
CCCCC/C=C\CCCC/C=C\CCCCCC1(CCCCC/C=C\CCCC/C=C\CCCCC)OCC(CCN(CC)CC)O1 (stereo not drawn) [Compound 6] | 6 to 7 | 
CCCCC/C=C\CCCC/C=C\CCCCCC(CCCCC/C=C\CCCC/C=C\CCCCC)OC(=O)CCCCN(C)C [Compound 12] | 6 to 7 | 
CCC/C=C\CCCC/C=C\CCCCCC1(CCCCC/C=C\CCCC/C=C\CCC)OCC(CCN(C)C)O1 (stereo not drawn) [Compound 5] | 6 to 7 | 
CC/C=C\CCCC/C=C\CCCCCCCC(=O)OC[C@H](COP(=O)(OC)OCCCCN(C)C)OC(=O)CCCCCCC/C=C\CCCC/C=C\CC (stereo partly drawn) [Compound 22] | 6 to 7 | 
CCCCCC/C=C\CCSSCCCC(=O)OC[C@H](CCN(C)C)OC(=O)CCCSSCC/C=C\CCCCCC [Compound 34] | 6 to 7 | 
CC/C=C\CCCC/C=C\CCCCCCCC(=O)OC[C@H](CCN(CC)CC)OC(=O)CCCCCCC/C=C\CCCC/C=C\CC [Compound 19] | 6 to 7 | 
CCCCC/C=C\CCCC/C=C\CCCCCC1(CCCCC/C=C\CCCC/C=C\CCCCC)OCC(CCN(C)C)O1 (stereo not drawn) [Compound 1] | 6 to 7 | 
CCCCC/C=C\C/C=C\CCCCCCCCC1(CCCCCCCC/C=C\C/C=C\CCCCC)OCC(CCN(C)C)O1 (stereo not drawn) [KC2, DLin-KC2-DMA] |  | % of parent lipid peak at time 0, 24 h [2]: 35 ± 0.7%; % of parent lipid peak at time 0, 48 h [2]: 6 ± 1.9%; % of parent lipid peak at time 0, 72 h [2]: 0 ± 0.0%; degradation [2]: fully degraded
CC/C=C\CCCC/C=C\CCCCCCCC(=O)OC[C@H](COP(=O)(OC)OCCCN(C)C)OC(=O)CCCCCCC/C=C\CCCC/C=C\CC (stereo partly drawn) [Compound 20] | 6 to 7 | 
CCCCCC/C=C\CCCCCCCCC1(CCCCCCCC/C=C\CCCCCC)OCC(CCN(C)C)O1 (stereo not drawn) [Compound 4] | 6 to 7 | 
CCC/C=C\CCCC/C=C\CCCCC(=O)OC[C@H](COP(=O)(OC)OCCCCN(C)C)OC(=O)CCCC/C=C\CCCC/C=C\CCC (stereo partly drawn) [Compound 28] | 6 to 7 | 
CCC/C=C\CCCC/C=C\CCCCCC(CCCCC/C=C\CCCC/C=C\CCC)OC(=O)CCCN(CC)CC [Compound 16] | 6 to 7 | 
CCC/C=C\CCCC/C=C\CCCCCC(CCCCC/C=C\CCCC/C=C\CCC)OC(=O)CCCN(C)C [Compound 14] | 6 to 7 | 
CCCCCCCC/C=C\CCSSCCCC(=O)OC[C@H](CCN(C)C)OC(=O)CCCSSCC/C=C\CCCCCCCC [Compound 33] | 6 to 7 | 
CC/C=C\CCCC/C=C\CCCCCCCC(=O)OC[C@H](CCN(C)C)OC(=O)CCCCCCC/C=C\CCCC/C=C\CC [Compound 17] | 6 to 7 | 
CCCCCC/C=C\CCSSCCCCC(CCCCSSCC/C=C\CCCCCC)OC(=O)CCCN(C)C [Compound 32] | 6 to 7 | 
CCC/C=C\CCCC/C=C\CCCCCC1(CCCCC/C=C\CCCC/C=C\CCC)OCC(CCCN(C)C)O1 (stereo not drawn) [Compound 8] | 6 to 7 | 
CCCCC/C=C\CCCC/C=C\CCCCCC1(CCCCC/C=C\CCCC/C=C\CCCCC)OC[C@H](CCCN(C)C)O1 [KC3-01, 3-((S)-2,2-di((6Z,12Z)-octadeca-6,12-dien-1-yl)-1,3-dioxolan-4-yl)-N,N-dimethylpropan-1-amine] |  | % of parent lipid peak at time 0, 24 h [2]: 83 ± 4.3%; % of parent lipid peak at time 0, 48 h [2]: 80 ± 0.4%; % of parent lipid peak at time 0, 72 h [2]: 74 ± 2.2%
CC(C)CCC[C@@H](C)[C@H]1CCC2[C@@H]3CC=C4CC(SSCCCN(C)C)CC[C@]4(C)[C@H]3CC[C@@]21C (stereo partly drawn) [Compound 35] |  | pKa (physchem): 6 to 7

Structure (SMILES) | pKa [1] | further results
CC/C=C\CCCC/C=C\CCCCCCCC(=O)OC[C@H](CCCN(C)C)OC(=O)CCCCCCC/C=C\CCCC/C=C\CC [Compound 18] | 6 to 7 | 
CCCCC/C=C\CCCC/C=C\CCCCCC(CCCCC/C=C\CCCC/C=C\CCCCC)OC(=O)CCCN(CC)CC [Compound 11] | 6 to 7 | 
CCCCCC/C=C\CCSSCCCCC1(CCCCSSCC/C=C\CCCCCC)OCC(CCN(C)C)O1 (stereo not drawn) [Compound 30] | 6 to 7 | 
CCCCC/C=C\CCCC/C=C\CCCCCC(CCCCC/C=C\CCCC/C=C\CCCCC)OC(=O)CCCN(C)C [Compound 9] | 6 to 7 | 
CCCCC/C=C\CCCC/C=C\CCCCC(=O)OC[C@H](CCN(C)C)OC(=O)CCCC/C=C\CCCC/C=C\CCCCC [UO-1] |  | % of parent lipid peak at time 0, 24 h [2]: 78 ± 0.6%; % of parent lipid peak at time 0, 48 h [2]: 74 ± 0.1%; % of parent lipid peak at time 0, 72 h [2]: 65 ± 2.5%
CCCCC/C=C\CCCC/C=C\CCCCCC1(CCCCC/C=C\CCCC/C=C\CCCCC)OCC(CCCN(C)C)O1 (stereo not drawn) [Compound 3] | 6 to 7 | 
CC/C=C\CCCC/C=C\CCCCCCCC(=O)OC[C@H](COP(=O)(OC)OCCCN(CC)CC)OC(=O)CCCCCCC/C=C\CCCC/C=C\CC (stereo partly drawn) [Compound 21] | 6 to 7 | 
CCC/C=C\CCCC/C=C\CCCCCC1(CCCCC/C=C\CCCC/C=C\CCC)OCC(CCN(CC)CC)O1 (stereo not drawn) [Compound 7] | 6 to 7 | 
CCCCCC/C=C\CCCCCCCCC(CCCCCCCC/C=C\CCCCCC)OC(=O)CCCN(C)C [Compound 13] | 6 to 7 | 
CCCCCCCC/C=C\CCSSCCCCC1(CCCCSSCC/C=C\CCCCCCCC)OCC(CCN(C)C)O1 (stereo not drawn) [Compound 29] | 6 to 7 | 
CCCCC/C=C\CCCC/C=C\CCCCCC1(CCCCC/C=C\CCCC/C=C\CCCCC)OC[C@H](CCN(C)C)O1 [KC2-01, 2-((S)-2,2-di((6Z,12Z)-octadeca-6,12-dien-1-yl)-1,3-dioxolan-4-yl)-N,N-dimethylethan-1-amine] |  | % of parent lipid peak at time 0, 24 h [2]: 91 ± 0.3%; % of parent lipid peak at time 0, 48 h [2]: 87 ± 0.9%; % of parent lipid peak at time 0, 72 h [2]: 83 ± 0.3%
CCCCC/C=C\C/C=C\CCCCCCCC(=O)OC[C@H](CCN(C)C)OC(=O)CCCCCCC/C=C\C/C=C\CCCCC [Compound O-11769] |  | % of parent lipid peak at time 0, 24 h [2]: 31 ± 0.9%; % of parent lipid peak at time 0, 48 h [2]: 1 ± 0.2%; % of parent lipid peak at time 0, 72 h [2]: 0.3 ± 0.1%; degradation [2]: fully degraded
CCC/C=C\CCCC/C=C\CCCCC(=O)OC[C@H](COP(=O)(OC)OCCCN(C)C)OC(=O)CCCC/C=C\CCCC/C=C\CCC (stereo partly drawn) [Compound 26] | 6 to 7 | 
CC/C=C\CCCC/C=C\CCCCCCCCC1(CCCCCCCC/C=C\CCCC/C=C\CC)OCC(CCN(C)C)O1 (stereo not drawn) [Compound 2] | 6 to 7 | 
CCC/C=C\CCCC/C=C\CCCCC(=O)OC[C@H](CCN(CC)CC)OC(=O)CCCC/C=C\CCCC/C=C\CCC [Compound 24] | 6 to 7 | 
CC/C=C\CCCC/C=C\CCCCCCCCC(CCCCCCCC/C=C\CCCC/C=C\CC)OC(=O)CCCN(C)C [Compound 10] | 6 to 7 | 
CC(C)CCC[C@@H](C)[C@H]1CCC2[C@@H]3CC=C4CC(SSCCCCN(C)C)CC[C@]4(C)[C@H]3CC[C@@]21C (stereo partly drawn) [Compound 36] |  | pKa (physchem): 6 to 7
CCC/C=C\CCCC/C=C\CCCCC(=O)OC[C@H](COP(=O)(OC)OCCCN(CC)CC)OC(=O)CCCC/C=C\CCCC/C=C\CCC (stereo partly drawn) [Compound 27] | 6 to 7 | 
CCCCC/C=C\C/C=C\CCCCCCCCC1(CCCCCCCC/C=C\C/C=C\CCCCC)OCC(CCCN(C)C)O1 (stereo not drawn) [KC3, Dlin-KC3-DMA] |  | % of parent lipid peak at time 0, 24 h [2]: 46 ± 1.8%; % of parent lipid peak at time 0, 48 h [2]: 1 ± 0.2%; % of parent lipid peak at time 0, 72 h [2]: 0 ± 0.0%; degradation [2]: fully degraded
CCC/C=C\CCCC/C=C\CCCCC(=O)OC[C@H](CCCN(C)C)OC(=O)CCCC/C=C\CCCC/C=C\CCC [Compound 25] | 6 to 7 | 
CCC/C=C\CCCC/C=C\CCCCCC(CCCCC/C=C\CCCC/C=C\CCC)OC(=O)CCCCN(C)C [Compound 15] | 6 to 7 | 

Source: patent US12331264B2, “Lipid nanoparticles for delivery of nucleic acids and methods of use thereof” (Akagera Medicines, Inc., priority 2020, dated 2025)
